Columns and labels:
[1] = molecular target: c-Cbl (Homo sapiens (Human), UniProt P22681); assay: C-Cbl LCK Ub TR-FRET assay (c-cbl Lck HTRF); type: biochemical; conditions: for (fold-selectivity): C-cbl Lck HTRF IC50 relative to Cbl-b Lck HTRF IC50
How it was run: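 Signal is read once the detection mix has stood 20 min at ambient temperature. Curves are anchored by DMSO as maximum and by omission of LCK as minimum.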

[2] = In vivo pharmacokinetics, mouse; design: species or system CD-1 mice; conditions: male, CD-1, plasma; for bioavailability: PO 1-5 mg/kg, read-out: Oral Bioavailability (F %); for clearance: single intravenous bolus 0.2-1 mg/kg, read-out: Mouse CL
Procedure: The pharmacokinetics of test compounds were evaluated following a single intravenous bolus (IV) of solution at a dose of 0.2-1 mg/kg and oral administration (PO) of solution/suspension at doses of 1-5 mg/kg in male cynomolgus monkey, beagle dogs, Sprague Dawley rats, or CD-1 mice using a parallel study design. Blood samples for the IV dose group were collected prior to administration (predose) and at 0.033, 0.083, 0.25, 0.5, 1, 3, 6, 9 and 24 hours post dose. Blood samples for PO dose groups were collected prior to administration (predose) and at 0.083, 0.25, 0.5, 1, 3, 6, 9 and 24 hours post dose. For the IV group, urine was collected from each animal at predose and from 0-6 and 6-24 hours post dose. The vehicle used for IV dose groups was a combination of PEG400 with citrate buffer (pH 5.0) or PEG400/Cremphor with DMSO/H2O, and for PO groups was MCT.
Plasma and urine concentrations were quantitated at Genentech Inc. using a non-validated LC/MS/MS method. The lower limit of quantitation (LLOQ) of the plasma and urine assays was 0.005 μM. PK parameters were determined by non-compartmental methods using WinNonlin (version 5.2, Pharsight Corporation, Mountain View, CA).

[3] = molecular target: Cbl-b (Homo sapiens (Human), UniProt Q13191); assay: Cbl-b LCK Ub TR-FRET assay (Cbl-b Lck HTRF); type: biochemical
How it was run: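 TR-FRET (340 nm excitation, 615/665 nm emission) read after adding HA-ubiquitin–UBE2D2 thioester, anti-HA-D2 and streptavidin-Eu. Beforehand, compounds incubated 60 min with biotinylated Cbl-b, then 90 min with His-LCK and ATP (1 mM in 2× mix); IC50 from 10 concentrations, DMSO high and no-LCK low controls.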

[4] = test system: rat hepatocytes; assay: Hepatocyte metabolic stability, rat; type: in vitro ADME; conditions: 1.0 μM compound, 0.5 million cells/mL
Procedure: (§1) Metabolic stability assays of test compounds were evaluated in cryopreserved pooled rat, mouse, dog, and cynomolgus monkey hepatocytes (CellzDirect; Durham, NC, USA). Membrane integrity of the cells was assessed by trypan blue exclusion. Test compounds (1.0 μM with 0.1% dimethylsulfoxide) were incubated with cells (0.5 million cells/mL) at 37° C. in a 95% air/5% CO2 atmosphere for 0, 20, 40, or 60 minutes. Concentrations of test compounds in hepatocyte incubations were determined by LC/MS/MS. Intrinsic clearance was determined using a substrate depletion method and scaled to hepatic clearance using the well-stirred model as described above for the liver microsomes metabolic stability assays.

[5] = Liver microsomes metabolic stability, dog; type: in vitro ADME; conditions: 1 μM compound, 0.5 mg/mL microsomal protein
Procedure: (§2) Metabolic stability of test compounds was evaluated in pooled rat, mouse, dog, and cynomolgus monkey liver microsomes (BD Biosciences, San Jose, CA). The incubation conditions were as follows: 1 μM of the tested compound, 1 mM NADPH, 0.5 mg/mL microsomal protein in 0.1 M potassium phosphate buffer (pH 7.4). Following a 5-minute pre-incubation period, the enzymatic reactions were initiated by the addition of NADPH and test compound to the microsomes diluted in phosphate buffered saline. The mixtures were incubated at 37° C. for 0, 20, 40, and 60 min.
(§3) Compound concentrations were assessed by LC-MS/MS. Intrinsic clearance based upon microsomal stability data was determined using a substrate depletion method and scaled to hepatic clearance using the well-stirred model (Obach, R. S.; Baxter, J. G.; Liston, T. E.; Silber, B. M.; Jones, B. C.; Macintyre, F.; Rance, D. J.; Wastall, P., “The Prediction of Human Pharmacokinetic Parameters from Preclinical and in vitro Metabolism Data”, J. Pharmacol. Exp. Ther., (1997), 283 (1), 46-58).

[6] = Liver microsomes metabolic stability, mouse; type: in vitro ADME; conditions: 1 μM compound, 0.5 mg/mL microsomal protein
Procedure: as §2, §3

[7] = Liver microsomes metabolic stability, rat; type: in vitro ADME; conditions: 1 μM compound, 0.5 mg/mL microsomal protein
Procedure: as §2, §3

[8] = test system: mouse hepatocytes; assay: Hepatocyte metabolic stability, mouse; type: in vitro ADME; conditions: 1.0 μM compound, 0.5 million cells/mL
Procedure: as §1

Chain of c-Cbl (P22681 47-435): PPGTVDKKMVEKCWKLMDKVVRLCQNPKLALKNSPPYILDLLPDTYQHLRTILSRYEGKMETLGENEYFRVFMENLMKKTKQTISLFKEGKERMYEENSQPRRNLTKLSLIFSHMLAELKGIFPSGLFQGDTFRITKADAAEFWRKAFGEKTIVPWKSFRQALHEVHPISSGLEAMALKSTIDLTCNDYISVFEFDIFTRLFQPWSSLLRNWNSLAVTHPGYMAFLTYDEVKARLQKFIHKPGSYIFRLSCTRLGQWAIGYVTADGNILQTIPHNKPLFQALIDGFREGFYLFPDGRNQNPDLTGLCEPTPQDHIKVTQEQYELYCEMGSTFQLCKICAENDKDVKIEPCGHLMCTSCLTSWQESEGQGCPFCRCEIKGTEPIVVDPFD
Chain of Cbl-b (Q13191 40-426): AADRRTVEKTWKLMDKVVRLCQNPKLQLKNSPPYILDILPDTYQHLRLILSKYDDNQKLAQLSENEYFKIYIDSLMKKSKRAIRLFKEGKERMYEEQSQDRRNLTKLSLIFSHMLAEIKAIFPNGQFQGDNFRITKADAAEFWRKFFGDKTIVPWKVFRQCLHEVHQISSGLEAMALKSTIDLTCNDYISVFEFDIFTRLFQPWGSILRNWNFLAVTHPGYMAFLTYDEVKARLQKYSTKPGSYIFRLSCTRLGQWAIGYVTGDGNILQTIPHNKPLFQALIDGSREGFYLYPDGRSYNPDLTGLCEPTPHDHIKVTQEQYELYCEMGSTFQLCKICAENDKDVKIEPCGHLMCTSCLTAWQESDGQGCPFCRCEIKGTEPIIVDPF

For CC(C)[C@H]1CN(C)CCN1Cc1cc2c(c(C(F)(F)F)c1)CN(c1cccc(C3([C@@H](F)c4nncn4C)CC(F)(F)C3)c1)C2=O [Compound 189, 2-(3-(3,3-difluoro-1-((R)-fluoro(4-methyl-4H-1,2,4-triazol-3-yl)methyl)cyclobutyl)phenyl)-6-(((S)-2-isopropyl-4-methylpiperazin-1-yl)methyl)-4-(trifluoromethyl)isoindolin-1-one], the IC50 [1] was 11 nM, the “(fold-selectivity)” value [1] was 0.95x and the bioavailability [2] was 21%. For the same molecule, the clearance [2] was 34 mL/min/kg and the IC50 [3] was 12 nM.
In the case of Cn1cnnc1[C@H](F)C1(c2cccc(N3Cc4c(cc(CN5CC6CC5C6)cc4C(F)(F)F)C3=O)c2)COC1 [Compound 86, (R)-6-((2-azabicyclo[2.1.1]hexan-2-yl)methyl)-2-(3-(3-(fluoro(4-methyl-4H-1,2,4-triazol-3-yl)methyl)oxetan-3-yl)phenyl)-4-(trifluoromethyl)isoindolin-1-one], the IC50 [1] is reported as 270 nM, the “(fold-selectivity)” value [1] is reported as 2.1x and the “Hepatocyte Pred. CLhep (mL/min/kg) Rat/Mouse/Dog” value [4] is reported as 12 mL/min/kg. The “Liver microsomes Pred. CLhep (mL/min/kg) Rat/Mouse/Dog” value [5] was 14 mL/min/kg, the “Liver microsomes Pred. CLhep (mL/min/kg) Rat/Mouse/Dog” value [6] was 27 mL/min/kg and the “Liver microsomes Pred. CLhep (mL/min/kg) Rat/Mouse/Dog” value [7] was 7 mL/min/kg. For the same molecule, the “Hepatocyte Pred. CLhep (mL/min/kg) Rat/Mouse/Dog” value [8] was 36 mL/min/kg, the bioavailability [2] was 2% and the clearance [2] was 40 mL/min/kg. It also gave an IC50 [3] of 130 nM.
With Cn1cnnc1[C@H](F)C1(c2cccc(N3Cc4c(cc(CN5CC(C)(CO)C5)cc4C(F)(F)F)C3=O)c2)COC1 [Compound 74, (R)-2-(3-(3-(fluoro(4-methyl-4H-1,2,4-triazol-3-yl)methyl)oxetan-3-yl)phenyl)-6((3-(hydroxymethyl)-3-methylazetidin-1-yl)methyl)-4-(trifluoromethyl)isoindolin-1-one] the IC50 [1] was 120 nM, the “(fold-selectivity)” value [1] was 2.2x and the “Hepatocyte Pred. CLhep (mL/min/kg) Rat/Mouse/Dog” value [4] was 11 mL/min/kg. The “Liver microsomes Pred. CLhep (mL/min/kg) Rat/Mouse/Dog” value [5] was 19 mL/min/kg, the “Liver microsomes Pred. CLhep (mL/min/kg) Rat/Mouse/Dog” value [6] was 37 mL/min/kg and the “Liver microsomes Pred. CLhep (mL/min/kg) Rat/Mouse/Dog” value [7] was 15 mL/min/kg. The “Hepatocyte Pred. CLhep (mL/min/kg) Rat/Mouse/Dog” value [8] was 35 mL/min/kg and the IC50 [3] was 57 nM.
In the case of Cn1cnnc1[C@H](F)C1(c2cccc(N3Cc4c(cc(CN)cc4C(F)(F)F)C3=O)c2)COC1 [Compound 68, (R)-6-(aminomethyl)-2-(3-(3-(fluoro(4-methyl-4H-1,2,4-triazol-3-yl)methyl)oxetan-3-yl)phenyl)-4-(trifluoromethyl)isoindolin-1-one], the IC50 [1] is reported as 110 nM, the “(fold-selectivity)” value [1] is reported as 1.3x and the “Hepatocyte Pred. CLhep (mL/min/kg) Rat/Mouse/Dog” value [4] is reported as 19 mL/min/kg. For the same molecule, the “Liver microsomes Pred. CLhep (mL/min/kg) Rat/Mouse/Dog” value [5] was 12 mL/min/kg, the “Liver microsomes Pred. CLhep (mL/min/kg) Rat/Mouse/Dog” value [6] was 14 mL/min/kg and the “Liver microsomes Pred. CLhep (mL/min/kg) Rat/Mouse/Dog” value [7] was 6 mL/min/kg. The “Hepatocyte Pred. CLhep (mL/min/kg) Rat/Mouse/Dog” value [8] was 37 mL/min/kg and the IC50 [3] was 79 nM.

Reference: US20250230147A1, “LACTAMS AS CBL-B INHIBITORS” (Genentech, Inc., priority 2021, published 2025)
